Data on three molecules can be found in patent publication US20180116978A1, “FORMULATIONS OF TOCOTRIENOL QUINONES FOR THE TREATMENT OF OPHTHALMIC DISEASES” (priority 2009, published 2018).

Like-named read-outs stand apart in the source and are kept apart here.

Data set [1] can be described thus: Animal study of alpha-tocotrienol quinone administration, pharmacokinetics in fasted dogs. The class given is in vivo. Conditions: 10 mg/kg.
The conditions of data set [2]: rat, in vivo. The source says:
The starting dose can be estimated based on the United States Food and Drug Administration guidelines titled “Estimating the Maximum Safe Starting Dose in Initial Clinical Trials for Therapeutics in Adult Healthy Volunteers” (July 2005) as well as the International Conference on Harmonisation of Technical Requirements for Registration of Pharmaceuticals for Human Use (ICH) guidelines titled “Guidance on Non-clinical Safety Studies for the Conduct of Human Clinical Trials and Marketing Authorization for Pharmaceuticals” (July 2008). Per ICH guidelines, predicted exposures from the starting dose should not exceed 1/50th the NOAEL (No-Adverse-Observed-Effect-Level) in the more sensitive species on a mg/m^2 basis. Following a single oral dose of alpha-tocotrienol quinone, the NOAEL was established to be 500 mg/kg for the female rat, i.e. 3,000 mg/m^2. This dosage would be equivalent to 81 mg/kg in an adult human. 1/50th of 81 mg/kg is 1.6 mg/kg, i.e. 110 mg for a 70 kg adult, or 16 mg for a 10 kg child. This dose can be administered once, twice, or three times daily.

For data set [3] the following is noted: rat, in vivo. The source holds these as a separate data set.
The conditions of data set [4]: rat, cited from earlier work.

One may read the Cmax as the highest concentration seen after dosing. As usually defined, the Tmax is the time at which the peak concentration occurs. Broadly, the bioavailability is dose-corrected exposure relative to a reference, in per cent. Turning to `CC(C)=CCC/C(C)=C/CC/C(C)=C/CCC(C)(O)CCC1=C(C)C(=O)C(C)=C(C)C1=O` (stereo not drawn) [Alpha-tocotrienol quinone, Alpha-Tocotrienol quinone], in data set [1], the Cmax came out at 442 ng/mL, the Tmax was found to be 2.8 h, the bioavailability was approximately 16% and the t1/2 was 7.6 h. Moreover, in data set [2], the “NOAEL equivalent dosage in an adult human” value came out at 81 mg/kg and the “safe when given acutely up to” value is recorded as “up to 2000 mg/kg”. In addition, the “increase in AUCs” value in data set [3] is recorded as 1.5:2.8:4.0:6.7. Also, in data set [3] (10 mg/kg), the Cmax amounted to 931 ng/mL, the Tmax is listed as 3.5 h, the bioavailability is listed as approximately 90% and the t1/2 is 3.5 h.

Turning to alpha-tocotrienol, the “concentration in ocular tissues” value in data set [4] (topical ophthalmic administration) is listed as “increased markedly in every tissue”.

With `Cc1c(C)c2c(c(C)c1O)CC[C@@](C)(CCC[C@H](C)CCC[C@H](C)CCCC(C)C)O2` [alpha-tocopherol], in data set [4] (in vivo), the “concentration in ocular tissues” value is “no significant increase”.
